Key:
[1] = system: glucose-6-phosphatase translocase mRNA; experiment: Target mRNA reduction in liver of db/db mice, dose-response study; assay type: in vivo, mouse
Description: (§1) Seven-week old male C57B1/6J-Lepr db/db mice (Jackson Laboratory, Bar Harbor, Me.) were fed a diet with a fat content of about 14% (Formulab Diet 5008) and were subcutaneously injected with ISIS 116847 (SEQ ID NO: 143), ISIS 141923 (SEQ ID NO: 144), or ISIS 148985 (SEQ ID NO: 118), an antisense inhibitor of glucose-6-phosphatase translocase, at a dose of 25 mg/kg two times per week for 4 weeks. […] Saline-injected animals served as controls. 48 hours after the eighth and final dose was administered, mice were sacrificed and target levels were evaluated in liver. RNA isolation and target mRNA expression level quantitation were performed as described by other examples herein.
Glucose-6-phosphatase translocase mRNA levels in db/db mouse livers were measured at the end of study using RIBOGREEN™ RNA quantification reagent (Molecular Probes, Inc. Eugene, Oreg.) as taught in previous examples above. Data are expressed as the average of 5 animals per treatment group. […] Target mRNA levels were reduced by approximately 21% by ISIS 148985. […] Therefore, antisense inhibitors of glucose-6-phosphatase translocase reduced target mRNA levels in the liver of db/db mice, and ISIS 149008 did so in a dose-dependent manner.

db/db mice = experiment: Oral glucose tolerance test in db/db mice (Table 10); assay type: in vivo, mouse
Description: The mice described in Example 11 were evaluated for performance on glucose tolerance tests after the 6th dose of saline or antisense oligonucleotides. Through measurement of glucose levels following the administration of a bolus of glucose, tolerance tests assess the physiological response to a glucose challenge.
Oral glucose tolerance tests (OGTT) were performed during week 3 of treatment with saline, ISIS 116847 (targeted to PTEN, SEQ ID NO: 143), ISIS 149008 (SEQ ID NO: 141), ISIS 148985 (SEQ ID NO: 118), or ISIS 141923 (SEQ ID NO: 144). To provide a baseline glucose level, fasted blood glucose levels were measured before the challenge. Glucose was administered by oral gavage via an 18 g gavage needle at a dose of 1 g/kg. Plasma glucose levels were measured for 30, 60, 90 and 120 minutes post-challenge using an Ascencia Glucometer Elite XL (Bayer, Tarrytown, N.Y.).
The results are presented in Table 10 as the average plasma glucose level (in mg/dL) per time point from each treatment group (n=7).

[2] = Plasma neutrophils and lymphocytes in db/db mice (Table 9); assay type: in vivo, mouse
Description: as §1, with “at a dose of 25 mg/kg two times per week for 4 weeks.” left out
Because mutations in the glucose-6-phosphatase translocase gene responsible for human glycogen storage disease type 1b result in neutropenia, plasma neutrophils and lymphocytes were measured for animals in each treatment group.

[3] = system: glucose-6-phosphatase translocase mRNA; experiment: Target mRNA reduction in liver of db/db mice (Example 10); assay type: in vivo, mouse; settings: 25 mg/kg s.c. twice weekly, end of study
Description: (§2) Seven-week old male C57B1/6J-Lepr db/db mice (Jackson Laboratory, Bar Harbor, Me.) were fed a diet with a fat content of about 14% and were subcutaneously injected with one or more of the oligomeric compounds of the invention or a control compound at a dose of 25 mg/kg two times per week. Glucose-6-phosphatase translocase antisense oligonucleotides used were ISIS 148985 (SEQ ID NO: 118) and ISIS 149008 (SEQ ID NO: 141). ISIS 116847 (SEQ ID NO: 143), targeted to mouse PTEN, was used as a positive control. The scrambled control oligonucleotide ISIS 141923 ([…], incorporated herein as SEQ ID NO: 144) served as a negative control along with saline-injected animals. ISIS 141923 and ISIS 116847 are chimeric oligonucleotides (“gapmers”) 20 nucleotides in length, composed of a central “gap” region consisting of 10 2′-deoxynucleotides, which is flanked on both sides (5′ and 3′) by five-nucleotide “wings”. The wings are composed of 2′-O-(2-methoxyethyl) nucleotides, also known as 2′-MOE nucleotides. The internucleoside (backbone) linkages are phosphorothioate throughout the oligonucleotide. All cytidine residues are 5-methylcytidines.
48 hours after the final treatment, mice were sacrificed and target levels were evaluated in liver. RNA isolation and target mRNA expression level quantitation were performed as described by other examples herein.
Glucose-6-phosphatase translocase mRNA levels in db/db mouse livers were measured at the end of study using RIBOGREEN™ RNA quantification reagent (Molecular Probes, Inc. Eugene, Oreg.) as taught in previous examples above. Unless otherwise noted, data are expressed as the average percent inhibition from 5 animals per treatment group.

[4] = mouse, in vivo, sc, 25 mg/kg
Description: as §2
Patients with the human glycogen storage disease type 1b have mutations in the glucose-6-phosphatase translocase gene. Because one manifestation of these mutations is a defect in hepatic glycogen […] leading to glycogen accumulation in the liver, the db/db mice were further evaluated at the end of the treatment period for liver glycogen stores. Tissue glycogen was measured using the Glucose Trinder Reagent (Sigma-Aldrich, St. Louis, Mo.). Results are presented as the average level from 5 animals per treatment. Glycogen levels of mice treated with saline alone were approximately 46 mg/g of tissue. Levels in mice treated with the positive control antisense compound ISIS 116847 had decreased levels of approximately 30 mg/g. Mice treated with the scrambled control compound ISIS 141923 had levels more similar to saline control of approximately 39 mg/g. Mice treated with ISIS 149008 or 148985, the antisense inhibitors of glucose-6-phosphatase translocase, had glycogen levels of approximately 38 mg/g and 37 mg/g, respectively.

[5] = 25 mg/kg twice weekly for 4 weeks
[6] = 25 mg/kg twice weekly, week 3, 0 min post-glucose challenge (fasted)
[7] = 25 mg/kg twice weekly, week 3, 30 min
[8] = 25 mg/kg twice weekly, week 3, 60 min
[9] = 25 mg/kg twice weekly, week 3, 90 min
[10] = 25 mg/kg twice weekly, week 3, 120 min
[11] = 25 mg/kg twice weekly 4 weeks (25 mg/mL [sic]), saline 0.9
[12] = 25 mg/kg twice weekly 4 weeks (25 mg/mL [sic]), saline 2.7

Sequence | Glucose-6-phosphatase translocase mRNA levels in liver, reduction compared to saline [1, 5] | plasma glucose, OGTT (db/db mice; [6]) [mg/dL] | plasma glucose, OGTT (db/db mice; [7]) [mg/dL] | plasma glucose, OGTT (db/db mice; [8]) [mg/dL] | plasma glucose, OGTT (db/db mice; [9]) [mg/dL] | plasma glucose, OGTT (db/db mice; [10]) [mg/dL] | Neutrophils Plasma [2, 11] [cells/nL] | Lymphocytes Plasma [2, 12] [cells/nL] | Glucose-6-phosphatase translocase mRNA levels in liver, reduction compared to saline [3] | Liver glycogen levels [4] | further results
CCTTCCCTGAAGGTTCCTCC (chemistry not given here) [ISIS 141923, scrambled control oligonucleotide, negative control, reference compound] | approximately 1% | 284 | 522 | 445 | 338 | 339 | 0.9 | 2.6 | about 4% | approximately 39 mg/g | 
CTGCTAGCCTCTGGATTTGA (chemistry not given here) [ISIS 116847, positive control oligonucleotide targeted to mouse PTEN, reference compound] | approximately 27% | 181 | 441 | 367 | 305 | 286 | 0.8 | 3.1 | about 8% | approximately 30 mg/g | 
GCTCCATAGCGAGGACTCGA (chemistry not given here) [ISIS 148985] | approximately 21% | 230 | 494 | 445 | 335 | 355 | 1.0 | 3.3 | approximately 19% | ~37 mg/g | 
TATACAAGTCGGTTTGCCCT (chemistry not given here) [ISIS 149008] | approximately 81% | 227 | 462 | 326 | 272 | 231 | 1.0 | 3.7 | approximately 82% | approximately 38 mg/g | Glucose-6-phosphatase translocase mRNA levels in liver, reduction compared to saline ([1]; 6.25 mg/kg twice weekly for 4 weeks): approximately 45%; Glucose-6-phosphatase translocase mRNA levels in liver, reduction compared to saline ([1]; 12.5 mg/kg twice weekly for 4 weeks): approximately 69%; plasma glucose, OGTT (db/db mice; 6 mg/kg twice weekly, week 3, 0 min (fasted)): 204 mg/dL; plasma glucose, OGTT (db/db mice; 6 mg/kg twice weekly, week 3, 30 min): 518 mg/dL; plasma glucose, OGTT (db/db mice; 6 mg/kg twice weekly, week 3, 60 min): 468 mg/dL; plasma glucose, OGTT (db/db mice; 6 mg/kg twice weekly, week 3, 90 min): 377 mg/dL; plasma glucose, OGTT (db/db mice; 6 mg/kg twice weekly, week 3, 120 min): 330 mg/dL; plasma glucose, OGTT (db/db mice; 12.5 mg/kg twice weekly, week 3, 0 min (fasted)): 152 mg/dL; plasma glucose, OGTT (db/db mice; 12.5 mg/kg twice weekly, week 3, 30 min): 529 mg/dL; plasma glucose, OGTT (db/db mice; 12.5 mg/kg twice weekly, week 3, 60 min): 427 mg/dL; plasma glucose, OGTT (db/db mice; 12.5 mg/kg twice weekly, week 3, 90 min): 348 mg/dL; plasma glucose, OGTT (db/db mice; 12.5 mg/kg twice weekly, week 3, 120 min): 329 mg/dL; area under the curve (AUC) of OGTT glucose values compared to saline (in words) (db/db mice; 25 mg/kg): significantly reduced the AUC; glucose tolerance (in words) (db/db mice; 6.25 to 25 mg/kg): dose-dependent improvement in glucose tolerance; Lymphocytes Plasma ([2]; dose 12.5 mg/mL [sic]): 3.2 cells/nL; Neutrophils Plasma ([2]; dose 12.5 mg/mL [sic]): 0.9 cells/nL; Lymphocytes Plasma ([2]; dose printed 6 mg/mL): 2.8 cells/nL; Neutrophils Plasma ([2]; dose printed 6 mg/mL): 1.1 cells/nL

From patent US8258114B2, “Modulation of glucose-6-phosphatase translocase expression” (Isis Pharmaceuticals, Inc., priority 2004, dated 2012)
